From patent US9765039B2, “Biaryl derivatives as bromodomain inhibitors” (Zenith Epigenetics Ltd., priority 2012, dated 2017)

How the values were obtained:
Brd4 bromodomain 1 = target: T1, Brd4 bromodomain 1 (Homo sapiens, UniProt O60885); test: Inhibition of tetra-acetylated histone H4 binding to BET bromodomains (TR-FRET); design: key: Active: Compounds with an IC50 value less than 30 μM were deemed to be active.; Not Active: Compounds with an IC50 value less than 30 μM were deemed to be active; conditions: first bromodomain of Brd4, tetra-acetylated histone H4 peptide
T1 construct: made in house; host or cells: E. coli BL21(DE3)
Procedure, shortened: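 TR-FRET with N-terminally His-tagged bromodomains (200 nM, E. coli-expressed, Ni affinity and SEC-purified) and biotinylated tetra-acetylated histone H4 peptide (25–50 nM), detected with Eu-cryptate streptavidin and XL665 anti-His antibody. Buffer 30 mM HEPES pH 7.4, 320 mM KF, 0.08% BSA, 0.2% DMSO; 2 h RT. IC50 from decrease in 665/620 nm ratio.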

c-myc = test: Inhibition of c-myc expression in cancer cell lines (mRNA, real-time PCR); assay type: cell-based; design: key: Active: Compounds with an IC50 value less than 30 μM were deemed to be active; conditions: Human AML MV4-11 cells, 3 hours
Procedure, shortened: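 MV4-11 cells (2.5×10^4) exposed to compound or 0.1% DMSO for 3 h at 37° C, then lysed for mRNA isolation. c-myc and cyclophilin cDNAs co-amplified by duplex RT real-time PCR. IC50 from dose-response curve.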

Human AML MV-4-11 cells = test: Inhibition of cell proliferation in cancer cell lines (CellTiter Aqueous One); assay type: cell-based; design: key: Active: Compounds with an IC50 value less than 30 μM were deemed to be active.; Not Active: Compounds with an IC50 value less than 30 μM were deemed to be active; conditions: 72 hours
Procedure, shortened: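 Exponentially growing MV-4-11 cells were treated immediately with two-fold compound dilutions from 30 µM to 0.2 µM in triplicate for 72 h at 37 °C. Viability was read by MTS (CellTiter Aqueous One) absorbance at 490 nm after 3-4 h; % proliferation vs DMSO gave IC50.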

hIL-6 mRNA = test: Inhibition of hIL-6 mRNA transcription in LPS-stimulated U937 macrophages; assay type: cell-based, human; design: key: Active: Compounds with an IC50 value less than 30 μM are deemed to be active; conditions: U937 differentiated into macrophages, 1 h pretreatment, lipopolysaccharide 3 h
Procedure, shortened: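 U937 cells differentiated 3 days with 60 ng/mL PMA, pretreated 1 h with compound, then stimulated with […] E. coli LPS for 3 h at 37° C. hIL-6 mRNA quantified by one-step real-time RT-PCR, Ct normalised to internal control and expressed as fold induction relative to control.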

hApoA-1 mRNA = test: Up-regulation of hApoA-1 mRNA transcription in Huh7 cells; assay type: cell-based, human; design: key: Active: Compounds with an EC170 value less than 30 μM are deemed to be active.; Not Active: Compounds with an EC170 value less than 30 μM are deemed to be active; conditions: 48 hrs treatment, ApoA-I mRNA
Procedure, shortened: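 Huh7 cells plated 24 h before compound, then treated 48 h; mRNA isolated from lysates and ApoA-I quantified by one-step real-time PCR. Fold induction derived from Ct values relative to the matching DMSO control; EC170 reported as activity measure.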

IL-6 = test: In vivo efficacy in mouse endotoxemia model (IL-6); conditions: C57/B16 mice; orally at 75 mg/kg; 4 hour challenge with LPS 0.5 mg/kg intraperitoneally
Procedure: Sub lethal doses of Endotoxin (E. coli bacterial lipopolysaccharide) were administered to animals to produce a generalized inflammatory response which was monitored by increases in secreted cytokines. Compounds were administered to C57/B16 mice orally at 75 mg/kg dose to evaluate inhibition in IL-6 and IL-17 cytokines post 4 hour challenge with Lipopolysaccharide (LPS) at 0.5 mg/kg dose intraperitoneally.

arthritic rats = test: In vivo efficacy in rat collagen induced arthritis; design: species or system female Lewis strain of rats; conditions: collagen Day 1 and 7, dosed Day 11 to Day 17
Procedure: Rat collagen-induced arthritis is an experimental model of polyarthritis that has been widely used for preclinical testing of numerous anti-arthritic agents. Following administration of collagen, this model establishes a measurable polyarticular inflammation, marked cartilage destruction in association with pannus formation and mild to moderate bone resorption and periosteal bone proliferation. In this model, collagen was administered to female Lewis strain of rats on Day 1 and 7 of study and dosed with compounds from Day 11 to Day 17. Compounds were evaluated to assess the potential to inhibit the inflammation (including paw swelling), cartilage destruction and bone resorption in arthritic rats, using a model in which the treatment is administered after the disease has been established.

SMILES | FRET activity (IC50 < 30 μM) (Brd4 bromodomain 1) | c-myc activity (IC50 < 30 μM) (c-myc) | cell proliferation activity (IC50 < 30 μM) (Human AML MV-4-11 cells) | IL-6 activity (IC50 < 30 μM) (hIL-6 mRNA) | ApoA-1 Activity (EC170 < 30 μM) (hApoA-1 mRNA) | In vivo Activity (IL-6) (IL-6) | In vivo Activity (arthritic rats) | melting point [°C]
COc1cc(OC)c2c(=O)[nH]c(-c3ccc(OCCNC(C)C)c(-c4ccc(S(C)(=O)=O)cc4)n3)nc2c1 [Example 27, 2-(5-(2-(Isopropylamino)ethoxy)-6-(4-(methylsulfonyl)phenyl)pyridin-2-yl)-5,7-dimethoxyquinazolin-4(3H)-one] | Active | Active | Active | Active | Active | Active | – | –
COc1cc(OC)c2c(=O)[nH]c(-c3ccc(OC)c(-c4ccc([S+](C)[O-])cc4)n3)nc2c1 (stereo not shown) [Example 50, 5,7-Dimethoxy-2-(5-methoxy-6-(4-(methylsulfinyl)phenyl)pyridin-2-yl)quinazolin-4(3H)-one] | Active | Active | Active | Active | Active | – | Active | 266 to 267
